Earlier results, collected in patent EP3735959A1, “COMPOSITIONS TO REDUCE HYPERPIGMENTATION” (InnovativeHealth Group SL, priority 2019, dated 2020).

System: human epidermal melanocytes

Compound: C=C(C)[C@@H]1CCC(C)=C[C@H]1c1c(O)cc(CCCCC)cc1O [CBD, Cannabidiol]
- melanogenesis (6 µM, by increasing the expression of MITF (reference 6)): induced melanogenesis
- cellular tyrosinase activity (human epidermal melanocytes, concentration dependent (reference 6)): significantly increased
